Columns and labels:
[1] = biological target: Melatonin receptor type 1A (Homo sapiens, UniProt P48039); experiment: Displacement of 2-[125I]iodomelatonin from human MT1 receptor expressed in HEK293 cells; assay type: cell-based
[2] = Inhibition of MT3 melatonin binding site from hamster brain membrane; design: species or system Cricetinae
[3] = Selectivity ratio, IC50 for human MT2 melatonin receptor to IC50 for hamster MT3 melatonin binding site
[4] = biological target: T1, Melatonin receptor type 1B (Homo sapiens, UniProt P49286); experiment: Displacement of 2-[125I]iodomelatonin from human MT2 receptor expressed in HEK293 cells; assay type: cell-based
T1 sequence (P49286 whole entry): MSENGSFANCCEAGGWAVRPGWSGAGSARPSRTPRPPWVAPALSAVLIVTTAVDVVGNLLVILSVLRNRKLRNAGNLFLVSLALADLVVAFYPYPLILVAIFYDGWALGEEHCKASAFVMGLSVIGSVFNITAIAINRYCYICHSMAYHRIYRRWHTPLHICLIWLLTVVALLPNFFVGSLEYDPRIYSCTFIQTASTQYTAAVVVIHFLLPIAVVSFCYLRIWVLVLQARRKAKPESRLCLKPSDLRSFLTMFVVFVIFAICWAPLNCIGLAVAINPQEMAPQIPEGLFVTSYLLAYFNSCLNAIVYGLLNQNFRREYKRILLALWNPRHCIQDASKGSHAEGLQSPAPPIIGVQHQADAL

[5] = Selectivity ratio, IC50 for human MT1 melatonin receptor to IC50 for hamster MT3 melatonin binding site

Chain of Melatonin receptor type 1A (P48039 whole entry): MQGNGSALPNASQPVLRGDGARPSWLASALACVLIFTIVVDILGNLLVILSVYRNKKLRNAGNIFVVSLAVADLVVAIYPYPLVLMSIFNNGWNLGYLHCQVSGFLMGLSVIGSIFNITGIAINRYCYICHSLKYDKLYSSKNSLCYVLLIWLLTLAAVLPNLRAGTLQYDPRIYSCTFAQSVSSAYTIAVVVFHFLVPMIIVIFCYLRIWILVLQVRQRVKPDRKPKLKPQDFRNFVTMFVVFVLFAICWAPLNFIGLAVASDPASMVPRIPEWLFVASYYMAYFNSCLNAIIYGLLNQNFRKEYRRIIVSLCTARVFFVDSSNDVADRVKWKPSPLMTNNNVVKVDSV

CNC(=O)c1ccc2occ(CCNC(C)=O)c2c1
IC50 [1]: 189 nM
IC50 [2]: 12 nM
Ratio IC50 [3]: > 83
IC50 [4]: > 1000 nM
Ratio IC50 [5]: 16

COc1cc2c(cc1OC)-c1c(c3cc(O)ccc3n1C)C2=O
Ki [2]: 0.19 nM

CC(=O)NCCc1coc2ccc(C(N)=O)cc12
IC50 [1]: > 10000 nM
IC50 [2]: 82 nM
Ratio IC50 [3]: 12
IC50 [4]: 1000 nM
Ratio IC50 [5]: > 122

COC(=O)c1ccc2occ(CCNC(=O)C3CCCC3)c2c1
IC50 [1]: 3880 nM
IC50 [2]: 18 nM
Ratio IC50 [3]: 21.6
IC50 [4]: 389 nM
Ratio IC50 [5]: 215

CNC(=O)c1ccc2occ(CCNC(=O)C3CCCC3)c2c1
IC50 [1]: > 10000 nM
IC50 [4]: > 10000 nM

CNC(=O)c1ccc2occ(CCNC(=O)C3CC3)c2c1
IC50 [1]: 1220 nM
IC50 [2]: 41 nM
Ratio IC50 [3]: > 244
IC50 [4]: > 10000 nM
Ratio IC50 [5]: > 29

NC(=O)c1ccc2occ(CCNC(=O)c3ccco3)c2c1
IC50 [1]: > 10000 nM
IC50 [2]: 67 nM
Ratio IC50 [3]: > 149
IC50 [4]: > 10000 nM
Ratio IC50 [5]: > 149

CC(=O)NCCc1coc2ccc(NC(=O)C(F)(F)F)cc12
IC50 [1]: > 10000 nM
IC50 [4]: 2000 nM

COC(=O)Nc1ccc2occ(CCNC(=O)C(C)C)c2c1
IC50 [1]: 5350 nM
IC50 [2]: 23 nM
Ratio IC50 [3]: 199
IC50 [4]: 4580 nM
Ratio IC50 [5]: 232

COC(=O)c1ccc2occ(CCNC(=O)C(C)C)c2c1
IC50 [2]: 65 nM

COc1ccc2occ(CCNC(C)=O)c2c1
IC50 [2]: 64 nM

COc1ccc2c(c(CCNC(C)=O)c(I)n2C)c1[N+](=O)[O-]
Ki [2]: 0.3 nM

COc1cc2nc(N3CCN(C(=O)c4ccco4)CC3)nc(N)c2cc1OC [PRAZOSIN]
IC50 [2]: 7.8 nM

COC(=O)c1ccc2occ(CCNC(C)=O)c2c1
IC50 [2]: 14 nM

COC(=O)Nc1ccc2occ(CCNC(C)=O)c2c1
IC50 [2]: 16 nM

COC(=O)Nc1ccc2occ(CCNC(=O)c3ccco3)c2c1
IC50 [1]: > 10000 nM
IC50 [2]: 56 nM
Ratio IC50 [3]: > 178
IC50 [4]: > 10000 nM
Ratio IC50 [5]: > 178

COC(=O)Nc1ccc2occ(CCNC(=O)C3CC3)c2c1
IC50 [1]: 8180 nM
IC50 [2]: 24 nM
Ratio IC50 [3]: 245
IC50 [4]: 5900 nM
Ratio IC50 [5]: 340

COC(=O)Nc1ccc2[nH]cc(CCNC(C)=O)c2c1
IC50 [1]: 1000 nM
IC50 [4]: 4000 nM

C=CCC(=O)NCCc1coc2ccc(NC(=O)OC)cc12
IC50 [1]: 2690 nM
IC50 [2]: 11 nM
Ratio IC50 [3]: 51
IC50 [4]: 560 nM
Ratio IC50 [5]: 244

COC(=O)Nc1ccc2occ(CCNC(=O)C3CCCC3)c2c1
IC50 [1]: 5320 nM
IC50 [4]: 5320 nM

COC(=O)c1ccc2occ(CCNC(=O)c3ccco3)c2c1
IC50 [1]: > 10000 nM
IC50 [2]: 53 nM
Ratio IC50 [3]: > 188
IC50 [4]: > 10000 nM
Ratio IC50 [5]: > 188

Reference: ChEMBL document CHEMBL1157185, “Design and synthesis of benzofuranic derivatives as new ligands at the melatonin-binding site MT3” (Bioorg Med Chem, 2008)
